Assays:
Pyricularia oryzae = experiment: microbe, parasite or virus in culture; format: cell-based; settings: 168 h, read-out: control compared to the untreated check (radial growth)
Alternaria solani = Alternaria solani (early blight of tomato/potato) in vitro test, radial growth on potato dextrose agar; format: cell-based; settings: 168 h, 300 ppm in potato dextrose agar, 25° C., 60% relative humidity, seven days, read-out: control compared to the untreated check (radial growth)
Colletotrichum capsici = Colletotrichum capsici (anthracnose) in vitro test, radial growth on potato dextrose agar; format: cell-based; settings: Colletotrichum truncatum, 168 h; 300 ppm in potato dextrose agar; 25° C., 60% relative humidity, seven days; read-out: control compared to the untreated check (radial growth)
Phakopsora pachyrhizi = Phakopsora pachyrhizi test in soybean, preventive, in vivo on plants; settings: in Glycine max, read-out: Efficacy (% control), disease severity compared to the untreated check
Rhizoctonia solani = Rhizoctonia solani (rice sheath blight/potato black scurf) in vitro test, radial growth on potato dextrose agar; format: cell-based; settings: 168 h, 300 ppm in potato dextrose agar, 25° C., 60% relative humidity, seven days, read-out: control compared to the untreated check (radial growth)
Botrytis cinerea = Botrytis cinerea (gray mold) in vitro test, radial growth on potato dextrose agar; format: cell-based; settings: 168 h, 300 ppm in potato dextrose agar, 22° C., 90% relative humidity, seven days, read-out: control compared to the untreated check (radial growth)

CCN(C)C=Nc1cc(C)cc(Cc2ccc(F)cc2C)c1Cl [Compound 65, N′-(2-chloro-3-(4-fluoro-2-methylbenzyl)-5-methylphenyl)-N-ethyl-N-methylformimidamide]
≥ 70%: inhibition of growth at 300 ppm (Pyricularia oryzae) | inhibition of growth at 300 ppm (Alternaria solani) | inhibition of growth at 300 ppm (Colletotrichum capsici) | pest or weed control at 500 ppm (Phakopsora pachyrhizi) | inhibition of growth at 300 ppm (Rhizoctonia solani) | inhibition of growth at 300 ppm (Botrytis cinerea)

CCN(C)C=Nc1cc(C)cc(Cc2ccccc2Br)c1Cl [Compound 45, N′-(3-(2-bromobenzyl)-2-chloro-5-methylphenyl)-N-ethyl-N-methylformimidamide]
≥ 70%: inhibition of growth at 300 ppm (Pyricularia oryzae) | inhibition of growth at 300 ppm (Alternaria solani) | inhibition of growth at 300 ppm (Colletotrichum capsici) | pest or weed control at 500 ppm (Phakopsora pachyrhizi) | inhibition of growth at 300 ppm (Rhizoctonia solani) | inhibition of growth at 300 ppm (Botrytis cinerea)

CCN(C)C=Nc1cc(C)cc(N(C)c2ccc(Cl)cc2)c1Cl [Compound 62, N′-(2-chloro-3-((4-chlorophenyl)(methyl)amino)-5-methylphenyl)-N-ethyl-N-methylformimidamide]
≥ 70%: inhibition of growth at 300 ppm (Alternaria solani) | inhibition of growth at 300 ppm (Colletotrichum capsici) | inhibition of growth at 300 ppm (Botrytis cinerea)

CCN(C)C=Nc1cc(C)cc(N(C)c2cccc(F)c2)c1Cl [Compound 40, N′-(2-chloro-3-((3-fluorophenyl)(methyl)amino)-5-methylphenyl)-N-ethyl-N-methylformimidamide]
≥ 70%: inhibition of growth at 300 ppm (Pyricularia oryzae) | inhibition of growth at 300 ppm (Alternaria solani) | inhibition of growth at 300 ppm (Colletotrichum capsici) | pest or weed control at 500 ppm (Phakopsora pachyrhizi) | inhibition of growth at 300 ppm (Botrytis cinerea)

CCN(C)C=Nc1cc(C)cc(Cc2ccc(Br)cc2)c1Cl [Compound 93, N′-(3-(4-bromobenzyl)-2-chloro-5-methylphenyl)-N-ethyl-N-methylformimidamide]
≥ 70%: inhibition of growth at 300 ppm (Pyricularia oryzae) | inhibition of growth at 300 ppm (Alternaria solani) | inhibition of growth at 300 ppm (Colletotrichum capsici) | pest or weed control at 500 ppm (Phakopsora pachyrhizi) | inhibition of growth at 300 ppm (Rhizoctonia solani) | inhibition of growth at 300 ppm (Botrytis cinerea)

CCN(C)C=Nc1cc(F)cc(N(C)c2cc(Cl)ccc2C)c1C [Compound 98, N′-(3-((5-chloro-2-methylphenyl)(methyl)amino)-5-fluoro-2-methylphenyl)-N-ethyl-N-methylformimidamide]
≥ 70%: inhibition of growth at 300 ppm (Pyricularia oryzae) | inhibition of growth at 300 ppm (Alternaria solani) | inhibition of growth at 300 ppm (Colletotrichum capsici) | pest or weed control at 500 ppm (Phakopsora pachyrhizi) | inhibition of growth at 300 ppm (Rhizoctonia solani) | inhibition of growth at 300 ppm (Botrytis cinerea)

CCN(C)C=Nc1cc(C)cc(Cc2cccc(Cl)c2)c1Cl [Compound 27, N′-(2-chloro-3-(3-chlorobenzyl)-5-methylphenyl)-N-ethyl-N-methylformimidamide]
≥ 70%: inhibition of growth at 300 ppm (Alternaria solani) | inhibition of growth at 300 ppm (Colletotrichum capsici) | inhibition of growth at 300 ppm (Rhizoctonia solani) | inhibition of growth at 300 ppm (Botrytis cinerea)

CCN(C)C=Nc1cc(Cl)cc(Cc2cccc(Br)c2)c1C [Compound 245, N′-(3-(3-bromobenzyl)-5-chloro-2-methylphenyl)-N-ethyl-N-methylformimidamide]
≥ 70%: inhibition of growth at 300 ppm (Pyricularia oryzae) | inhibition of growth at 300 ppm (Alternaria solani) | inhibition of growth at 300 ppm (Colletotrichum capsici) | inhibition of growth at 300 ppm (Rhizoctonia solani) | inhibition of growth at 300 ppm (Botrytis cinerea)

CCN(C)C=Nc1cc(C)cc(Nc2cccc(Cl)c2)c1Cl [Compound 34, N′-(2-chloro-3-((3-chlorophenyl)amino)-5-methylphenyl)-N-ethyl-N-methylformimidamide]
≥ 70%: inhibition of growth at 300 ppm (Pyricularia oryzae) | inhibition of growth at 300 ppm (Alternaria solani) | inhibition of growth at 300 ppm (Colletotrichum capsici) | pest or weed control at 500 ppm (Phakopsora pachyrhizi) | inhibition of growth at 300 ppm (Rhizoctonia solani) | inhibition of growth at 300 ppm (Botrytis cinerea)

CCN(C)C=Nc1cc(C)cc(N(C)c2cccc(Cl)c2)c1Cl [Compound 41, N′-(2-chloro-3-((3-chlorophenyl)(methyl)amino)-5-methylphenyl)-N-ethyl-N-methylformimidamide]
≥ 70%: inhibition of growth at 300 ppm (Pyricularia oryzae) | inhibition of growth at 300 ppm (Alternaria solani) | inhibition of growth at 300 ppm (Colletotrichum capsici) | pest or weed control at 500 ppm (Phakopsora pachyrhizi) | inhibition of growth at 300 ppm (Botrytis cinerea)

CCN(C)C=Nc1cc(F)cc(N(C)c2cccc(OC)c2)c1C [Compound 39, N-ethyl-N′-(5-fluoro-3-((3-methoxyphenyl)(methyl)amino)-2-methylphenyl)-N-methylformimidamide]
≥ 70%: inhibition of growth at 300 ppm (Pyricularia oryzae) | inhibition of growth at 300 ppm (Alternaria solani) | inhibition of growth at 300 ppm (Colletotrichum capsici) | pest or weed control at 500 ppm (Phakopsora pachyrhizi)

CCN(C)C=Nc1cc(F)cc(Cc2cc(F)ccc2Br)c1C [Compound 233, N′-(3-(2-bromo-5-fluorobenzyl)-5-fluoro-2-methylphenyl)-N-ethyl-N-methylformimidamide]
≥ 70%: inhibition of growth at 300 ppm (Pyricularia oryzae) | inhibition of growth at 300 ppm (Alternaria solani) | inhibition of growth at 300 ppm (Colletotrichum capsici) | pest or weed control at 500 ppm (Phakopsora pachyrhizi) | inhibition of growth at 300 ppm (Rhizoctonia solani) | inhibition of growth at 300 ppm (Botrytis cinerea)

CCN(C)C=Nc1cc(F)cc(Cc2ccc(C)cc2)c1C [Compound 171, N-ethyl-N′-(5-fluoro-2-methyl-3-(4-methylbenzyl)phenyl)-N-methylformimidamide]
≥ 70%: inhibition of growth at 300 ppm (Pyricularia oryzae) | inhibition of growth at 300 ppm (Alternaria solani) | inhibition of growth at 300 ppm (Colletotrichum capsici) | inhibition of growth at 300 ppm (Rhizoctonia solani) | inhibition of growth at 300 ppm (Botrytis cinerea)

CCN(C)C=Nc1cc(C)cc(Nc2ccc(OC)c(F)c2)c1Cl [Compound 255, N′-(2-chloro-3-((3-fluoro-4-methoxyphenyl)amino)-5-methylphenyl)-N-ethyl-N-methylformimidamide]
≥ 70%: inhibition of growth at 300 ppm (Pyricularia oryzae) | inhibition of growth at 300 ppm (Alternaria solani) | inhibition of growth at 300 ppm (Colletotrichum capsici) | pest or weed control at 500 ppm (Phakopsora pachyrhizi) | inhibition of growth at 300 ppm (Rhizoctonia solani)

CCN(C)C=Nc1cc(C)cc(Cc2cc(F)c(OC)c(F)c2)c1Cl [Compound 71, N′-(2-chloro-3-(3,5-difluoro-4-methoxybenzyl)-5-methylphenyl)-N-ethyl-N-methylformimidamide]
≥ 70%: inhibition of growth at 300 ppm (Pyricularia oryzae) | inhibition of growth at 300 ppm (Alternaria solani) | inhibition of growth at 300 ppm (Colletotrichum capsici) | pest or weed control at 500 ppm (Phakopsora pachyrhizi) | inhibition of growth at 300 ppm (Rhizoctonia solani) | inhibition of growth at 300 ppm (Botrytis cinerea)

CCN(C)C=Nc1cc(C)cc(Cc2ccc(OC)cc2)c1Cl [Compound 150, N′-(2-chloro-3-(4-methoxybenzyl)-5-methylphenyl)-N-ethyl-N-methylformimidamide]
≥ 70%: inhibition of growth at 300 ppm (Pyricularia oryzae) | inhibition of growth at 300 ppm (Alternaria solani) | inhibition of growth at 300 ppm (Colletotrichum capsici) | pest or weed control at 500 ppm (Phakopsora pachyrhizi) | inhibition of growth at 300 ppm (Rhizoctonia solani) | inhibition of growth at 300 ppm (Botrytis cinerea)

CCN(C)C=Nc1cc(C)cc(Cc2ccc(F)c(C)c2)c1Cl [Compound 68, N′-(2-chloro-3-(4-fluoro-3-methylbenzyl)-5-methylphenyl)-N-ethyl-N-methylformimidamide]
≥ 70%: inhibition of growth at 300 ppm (Pyricularia oryzae) | inhibition of growth at 300 ppm (Alternaria solani) | inhibition of growth at 300 ppm (Colletotrichum capsici) | pest or weed control at 500 ppm (Phakopsora pachyrhizi) | inhibition of growth at 300 ppm (Rhizoctonia solani) | inhibition of growth at 300 ppm (Botrytis cinerea)

CCN(C)C=Nc1cc(F)cc(Cc2ccc(Cl)cc2)c1C [Compound 172, N′-(3-(4-chlorobenzyl)-5-fluoro-2-methylphenyl)-N-ethyl-N-methylformimidamide]
≥ 70%: inhibition of growth at 300 ppm (Pyricularia oryzae) | inhibition of growth at 300 ppm (Alternaria solani) | inhibition of growth at 300 ppm (Colletotrichum capsici) | inhibition of growth at 300 ppm (Rhizoctonia solani) | inhibition of growth at 300 ppm (Botrytis cinerea)

CCN(C)C=Nc1cc(C)cc(N(C)c2ccc(Cl)cc2F)c1Cl [Compound 156, N′-(2-chloro-3-((4-chloro-2-fluorophenyl)(methyl)amino)-5-methylphenyl)-N-ethyl-N-methylformimidamide]
≥ 70%: inhibition of growth at 300 ppm (Alternaria solani) | inhibition of growth at 300 ppm (Colletotrichum capsici) | pest or weed control at 500 ppm (Phakopsora pachyrhizi)

CCN(C)C=Nc1cc(Cl)cc(Cc2ccccc2C(F)(F)F)c1C [Compound 244, N′-(5-chloro-2-methyl-3-(2-(trifluoromethyl)benzyl)phenyl)-N-ethyl-N-methylformimidamide]
≥ 70%: inhibition of growth at 300 ppm (Pyricularia oryzae) | inhibition of growth at 300 ppm (Alternaria solani) | inhibition of growth at 300 ppm (Colletotrichum capsici) | inhibition of growth at 300 ppm (Rhizoctonia solani) | inhibition of growth at 300 ppm (Botrytis cinerea)

CCN(C)C=Nc1cc(Cl)cc(NCc2cccc(Cl)c2)c1C [Compound 183, N′-(5-chloro-3-((3-chlorobenzyl)amino)-2-methylphenyl)-N-ethyl-N-methylformimidamide]
≥ 70%: inhibition of growth at 300 ppm (Pyricularia oryzae) | inhibition of growth at 300 ppm (Alternaria solani) | inhibition of growth at 300 ppm (Colletotrichum capsici) | pest or weed control at 500 ppm (Phakopsora pachyrhizi) | inhibition of growth at 300 ppm (Rhizoctonia solani) | inhibition of growth at 300 ppm (Botrytis cinerea)

CCN(C)C=Nc1cc(C)cc(Cc2cccc(C#N)c2)c1Cl [Compound 48, N′-(2-chloro-3-(3-cyanobenzyl)-5-methylphenyl)-N-ethyl-N-methylformimidamide]
≥ 70%: inhibition of growth at 300 ppm (Pyricularia oryzae) | inhibition of growth at 300 ppm (Alternaria solani) | inhibition of growth at 300 ppm (Colletotrichum capsici) | inhibition of growth at 300 ppm (Rhizoctonia solani)

CCN(C)C=Nc1cc(C)cc(Cc2ccccc2C(F)(F)F)c1Cl [Compound 21, N′-(2-chloro-5-methyl-3-(2-(trifluoromethyl)benzyl)phenyl)-N-ethyl-N-methylformimidamide]
≥ 70%: inhibition of growth at 300 ppm (Pyricularia oryzae) | inhibition of growth at 300 ppm (Alternaria solani) | inhibition of growth at 300 ppm (Colletotrichum capsici) | pest or weed control at 500 ppm (Phakopsora pachyrhizi) | inhibition of growth at 300 ppm (Rhizoctonia solani) | inhibition of growth at 300 ppm (Botrytis cinerea)

CCN(C)C=Nc1cc(F)cc(N(C)c2cccc(C)c2F)c1C [Compound 152, N-ethyl-N′-(5-fluoro-3-((2-fluoro-3-methylphenyl)(methyl)amino)-2-methylphenyl)-N-methylformimidamide]
≥ 70%: inhibition of growth at 300 ppm (Pyricularia oryzae) | inhibition of growth at 300 ppm (Alternaria solani) | inhibition of growth at 300 ppm (Colletotrichum capsici) | pest or weed control at 500 ppm (Phakopsora pachyrhizi) | inhibition of growth at 300 ppm (Rhizoctonia solani) | inhibition of growth at 300 ppm (Botrytis cinerea)

Source: US12545639B2, “3-substituted phenylamidine compounds, preparation and use thereof” (PI INDUSTRIES LTD., priority 2019, dated 2026)
